Paper PMC11747885, “Potent inhibitors of the human RNA ligase Rlig1 highlights its role in RNA integrity maintenance under oxidative cellular stress” (Chemical Science, 2025)
Where “and” joins values, the source holds several entries; their conditions need not be identical. Equal values may be shown once. Entries after “also recorded” stand apart in the source; their conditions may differ. Read-outs that look alike come from different tables or passages of the source.

What was measured:
HEK293 cells [1] = experiment: Light-microscopy of inhibitor- and menadione-treated HEK293 cells; assay type: cell-based, human; settings: 30 µM compound 24 h, then menadione 5 h
Rlig1-AMP [2] = molecular target: T1, Rlig1-AMP (Homo sapiens, UniProt Q8N999); experiment: Radioactive RNA ligation assay (hit validation, 10 µM test and IC50 determination); assay type: biochemical; settings: for inhibition of Rlig1-AMP ligation (urea-PAGE): 10 μM compound; for IC50: n = 3; for percentage inhibition (dose response curve for IC50): replicates I-III; for LogIC50 (best-fit value): log of µM; for Bottom (best-fit value) / Top (best-fit value): log(inhibitor) vs. response, variable slope (four parameters)
T1 construct: made in house; host or cells: E. coli BL21 (DE3), pET15b-Rlig1

[3] = molecular target: T2, human DNA ligase 1 (hLig1) (Homo sapiens, UniProt P18858); experiment: DNA ligation assay with various hLig1 concentration at constant inhibitor concentration; assay type: biochemical; settings: 30 min 37 °C; for DNA product formation: 10 µM compound, three replicates
T2 construct: made in house; host or cells: E. coli Rosetta BL21 (DE3), pET28a-hLig1

HEK293 cells [4] = experiment: Cell viability assay of HEK293 cells treated with inhibitors (CellTiter-Glo); settings: for cytotoxicity (in words): HEK293, 24 h, up to 30 μM; for EC50: HEK293, 24 h compound, highest concentration 30 μM, n = 3; for IC50 (Figure 3D: EC50 values for plot; log(inhibitor) vs. response -- Variable slope (four parameters)) / LogIC50 (log(inhibitor) vs. response -- Variable slope (four parameters)): HEK293 cell viability, fit per plate (3 plates, 4 technical replicates each); for IC50 (Figure 3D: EC50 values for plot; log(inhibitor) vs. response -- Variable slope (four parameters)): highest tested concentration 30 µM; for LogIC50 (log(inhibitor) vs. response -- Variable slope (four parameters)): log of [µM]
Rlig1-AMP [5] = molecular target: T1, Rlig1-AMP; experiment: FRET-based high-throughput screening of inhibitors for Rlig1-AMP; assay type: biochemical; settings: HTS hits; for Raw data [w Enyzm]: with enzyme; for Raw data [w/o Enzym]: without enzyme; for 1-D Distance.npi: normalised value of 1-D Distance
[6] = DMSO; ref MedChemExpress; cited from earlier work
[7] = ultrasonic/warming, ref MedChemExpress, cited from earlier work
[8] = four-parameter fit, read-out: IC50 (best-fit value)
[9] = radioactive ligation assay, 500 nM Rlig1-AMP, 20 min 37 °C, read-out: IC50
[10] = difference of raw data without and with enzyme
[11] = difference of raw data w/o and w enzyme

T1 sequence (Q8N999 whole entry): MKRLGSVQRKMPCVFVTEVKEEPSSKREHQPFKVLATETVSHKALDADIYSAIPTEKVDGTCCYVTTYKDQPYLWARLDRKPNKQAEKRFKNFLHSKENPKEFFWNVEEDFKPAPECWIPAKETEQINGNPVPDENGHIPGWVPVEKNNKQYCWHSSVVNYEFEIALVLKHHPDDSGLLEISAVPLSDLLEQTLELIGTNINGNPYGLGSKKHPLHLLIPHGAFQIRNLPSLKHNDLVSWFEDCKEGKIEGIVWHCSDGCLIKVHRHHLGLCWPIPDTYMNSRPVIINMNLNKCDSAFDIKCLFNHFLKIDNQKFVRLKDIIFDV
T2 sequence (P18858 whole entry): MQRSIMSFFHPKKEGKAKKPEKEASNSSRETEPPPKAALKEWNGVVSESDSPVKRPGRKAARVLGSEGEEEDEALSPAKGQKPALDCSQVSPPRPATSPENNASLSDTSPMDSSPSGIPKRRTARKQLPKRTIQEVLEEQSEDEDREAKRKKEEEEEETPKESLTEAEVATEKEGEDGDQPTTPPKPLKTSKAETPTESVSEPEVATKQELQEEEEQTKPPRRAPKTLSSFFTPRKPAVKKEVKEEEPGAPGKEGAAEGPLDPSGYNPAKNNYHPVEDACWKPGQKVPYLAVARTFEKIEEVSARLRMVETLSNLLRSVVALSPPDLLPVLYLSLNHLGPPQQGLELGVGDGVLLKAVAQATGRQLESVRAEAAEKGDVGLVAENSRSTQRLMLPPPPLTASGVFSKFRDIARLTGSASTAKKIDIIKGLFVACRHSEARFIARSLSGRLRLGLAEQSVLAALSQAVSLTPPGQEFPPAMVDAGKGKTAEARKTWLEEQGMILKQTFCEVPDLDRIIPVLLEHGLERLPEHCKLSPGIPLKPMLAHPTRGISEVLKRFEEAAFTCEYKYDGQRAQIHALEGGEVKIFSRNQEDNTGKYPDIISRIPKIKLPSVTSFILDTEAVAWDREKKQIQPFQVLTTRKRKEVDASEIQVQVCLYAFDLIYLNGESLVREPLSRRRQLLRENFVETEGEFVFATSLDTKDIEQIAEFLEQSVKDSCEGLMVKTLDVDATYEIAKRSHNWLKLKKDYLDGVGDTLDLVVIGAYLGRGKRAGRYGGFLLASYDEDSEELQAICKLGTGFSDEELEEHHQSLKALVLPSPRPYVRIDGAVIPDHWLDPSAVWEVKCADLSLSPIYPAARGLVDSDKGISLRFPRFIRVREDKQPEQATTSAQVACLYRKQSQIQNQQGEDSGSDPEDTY

| Molecule | inhibition of Rlig1-AMP ligation (urea-PAGE) (Rlig1-AMP [2]; 500 nM Rlig1-AMP, 20 min 37 °C) | HillSlope (best-fit value) (Rlig1-AMP [2]; four-parameter fit) | Span (best-fit value) (Rlig1-AMP [2]; four-parameter fit) | IC50 (Rlig1-AMP [2]; [8]) | percentage inhibition (dose response curve for IC50) (Rlig1-AMP [2]; log Compound [µM] 0.273001) | percentage inhibition (dose response curve for IC50) (Rlig1-AMP [2]; log Compound [µM] 0.574031) | percentage inhibition (dose response curve for IC50) (Rlig1-AMP [2]; log Compound [µM] 0.875061) | percentage inhibition (dose response curve for IC50) (Rlig1-AMP [2]; log Compound [µM] 1.17609) | percentage inhibition (dose response curve for IC50) (Rlig1-AMP [2]; log Compound [µM] 1.47712) | percentage inhibition (dose response curve for IC50) (Rlig1-AMP [2]; log Compound [µM] -0.0280287) | percentage inhibition (dose response curve for IC50) (Rlig1-AMP [2]; log Compound [µM] -0.329059) | percentage inhibition (dose response curve for IC50) (Rlig1-AMP [2]; log Compound [µM] -0.630089) | LogIC50 (best-fit value) (Rlig1-AMP [2]; four-parameter fit) | Bottom (best-fit value) (Rlig1-AMP [2]) | Top (best-fit value) (Rlig1-AMP [2]) | IC50 (Rlig1-AMP [2]; [9]) | Raw data [w Enyzm] (Rlig1-AMP [5]) | Raw data [w/o Enzym] (Rlig1-AMP [5]) | 1-D Distance (Rlig1-AMP [5]; [11]) | solubility, DMSO [7] | also measured |
| --- | --- | --- | --- | --- | --- | --- | --- | --- | --- | --- | --- | --- | --- | --- | --- | --- | --- | --- | --- | --- | --- |
| Nc1nccc(Nc2ccc(NC(=O)c3ccc(Nc4ccnc5ccccc45)cc3)cc2)n1 [Compound 26] | Ligation was inhibited; also recorded: fully inhibited | 3.34 | 95.37 | 4.49 µM | 7.036 and 5.771 and 6.366 | 19.5464 and 52.3001 and 38.2038 | 94.6767 and 96.3427 and 56.3237 | 97.6992 and 100 and 95.9858 | 89.2369 and 100 (2×) | 3.692 and 2.642 and 2.052 | 0 and 3.294 and 5.142 | 0 and 3.877 and 4.72 | 0.6524 | 2.425 | 97.8 | 4.49 µM | – | – | – | – | cell morphology (HEK293 cells [1]): poor adherence and cell shrinkage; DNA product formation ([3]; hlig1 0.0315 µM): 43.039% and 22.9913% and 34.3002%; DNA product formation ([3]; hlig1 0.0625 µM): 60.9211% and 39.0213% and 52.249%; DNA product formation ([3]; hlig1 0.5 µM): 79.5392% and 84.6219% and 85.9221% |
| Nc1nc(Nc2ccc(NC(=O)c3ccc(Nc4ccnc5ccccc45)cc3)cc2)cc(C(F)(F)F)n1 [Compound 41] | Ligation was inhibited; also recorded: fully inhibited | 6.706 | 91.68 | 7.98 µM | 1.895 and 15.4708 and 0.5134 | 11.1208 and 11.2726 and 0 | 30.9538 and 51.1087 and 45.619 | 95.8601 and 98.8258 and 95.9476 | 93.067 and 100 and 99.7336 | 9.18 and 3.83 and 4.351 | 8.319 and 4.077 and 3.842 | 9.025 and 10.4021 and 1.823 | 0.9022 | 6.221 | 97.9 | 7.98 µM | – | – | – | – | effect on hLig1 activity (in words) ([3]; 10 μM compound, hLig1 titrated (500 nM to 31.3 nM)): least impact on hLig1 activity; DNA product formation ([3]; hlig1 0.0315 µM): 32.8195% and 34.8543% and 48.0642%; DNA product formation ([3]; hlig1 0.0625 µM): 59.0993% and 56.4484% and 66.8349%; DNA product formation ([3]; hlig1 0.5 µM): 87.3568% and 90.1164% and 79.5057%; cytotoxicity (in words) (HEK293 cells [4]): comparatively high cytotoxicity; EC50 (HEK293 cells [4]): 5.59 µM; IC50 (Figure 3D: EC50 values for plot; log(inhibitor) vs. response -- Variable slope (four parameters)) (HEK293 cells [4]): 5.211 µM and 5.311 µM and 6.697 µM; LogIC50 (log(inhibitor) vs. response -- Variable slope (four parameters)) (HEK293 cells [4]): 0.717 and 0.7252 and 0.8259 |
| CNc1nccc(Nc2ccc(NC(=O)c3ccc(Nc4ccnc5ccccc45)cc3)cc2)n1 [Compound 42] | Ligation was inhibited; also recorded: fully inhibited | 5.584 | 91.59 | 3.29 µM | 16.0159 and 7.852 and 10.1751 | 79.3655 and 83.1907 and 44.7582 | 100 and 98.6279 and 97.3725 | 100 (2×) and 92.704 | 100 | 9.717 and 4.5039 and 9.184 | 6.426 and 0 and 5.66 | 11.6754 and 8.294 and 11.6155 | 0.5177 | 7.458 | 99.05 | 3.29 µM | – | – | – | – | DNA product formation ([3]; hlig1 0.0315 µM): 8.9605% and 14.7712% and 28.5706%; DNA product formation ([3]; hlig1 0.0625 µM): 20.859% and 38.2979% and 41.6376%; DNA product formation ([3]; hlig1 0.5 µM): 72.119% and 74.3311% and 77.4812%; cytotoxicity (in words) (HEK293 cells [4]): comparatively high cytotoxicity; EC50 (HEK293 cells [4]): 3.51 µM; IC50 (Figure 3D: EC50 values for plot; log(inhibitor) vs. response -- Variable slope (four parameters)) (HEK293 cells [4]): 3.237 µM and 3.382 µM and 4.036 µM; LogIC50 (log(inhibitor) vs. response -- Variable slope (four parameters)) (HEK293 cells [4]): 0.5101 and 0.5292 and 0.6059 |
| Cc1cnc(NCCCN(C)C)c2c1[nH]c1ccc3cc(O)ccc3c12 [Intoplicine] | – | – | – | – | – | – | – | – | – | – | – | – | – | – | – | – | 6875 | 8534 | – | – | 1-D Distance (Rlig1-AMP [5]; [10]): 1659; solubility [6]: 80 mg/mL and 229.59 mM |
| COc1cccc2c1C(=O)c1c(O)c3c(c(O)c1C2=O)C[C@@](O)(C(=O)CO)C[C@@H]3O[C@H]1C[C@H](N)[C@H](O[C@@H]2CCCCO2)[C@H](C)O1.Cl [Pirarubicin (Hydrochloride)] | – | – | – | – | – | – | – | – | – | – | – | – | – | – | – | – | 2238 | 3258 | 1020 | 20.83 mg/mL and 31.37 mM | 1-D Distance.npi (Rlig1-AMP [5]): 86.4182; solubility, H2O [7]: < 0.1 mg/mL |
| O=C(O)c1cc(O)c2c(c1)[C@H]([C@H]1c3cc(C(=O)O)cc(O)c3C(=O)c3c(O[C@@H]4O[C@H](CO)[C@@H](O)[C@H](O)[C@H]4O)cccc31)c1cccc(O[C@@H]3O[C@H](CO)[C@@H](O)[C@H](O)[C@H]3O)c1C2=O [Sennoside A] | – | – | – | – | – | – | – | – | – | – | – | – | – | – | – | – | 4442 | 6178 | – | – | 1-D Distance (Rlig1-AMP [5]; [10]): 1736; solubility [6]: 250 mg/mL and 289.77 mM |
| O=C(O)c1cc(O)c2c(c1)[C@@H]([C@H]1c3cc(C(=O)O)cc(O)c3C(=O)c3c(O[C@@H]4O[C@H](CO)[C@@H](O)[C@H](O)[C@H]4O)cccc31)c1cccc(O[C@@H]3O[C@H](CO)[C@@H](O)[C@H](O)[C@H]3O)c1C2=O [Sennoside B] | – | – | – | – | – | – | – | – | – | – | – | – | – | – | – | – | 3598 | 4706 | 1108 | 125 mg/mL and 144.89 mM | – |
| C[n+]1ccc(-c2c3nc(c(-c4cc[n+](C)cc4)c4ccc([nH]4)c(-c4cc[n+](C)cc4)c4nc(c(-c5cc[n+](C)cc5)c5ccc2[nH]5)C=C4)C=C3)cc1.Cc1ccc(S(=O)(=O)[O-])cc1.Cc1ccc(S(=O)(=O)[O-])cc1.Cc1ccc(S(=O)(=O)[O-])cc1.Cc1ccc(S(=O)(=O)[O-])cc1 [TMPyP4 tosylate] | – | – | – | – | – | – | – | – | – | – | – | – | – | – | – | – | 658 | 698 | 40 | 10 mg/mL and 7.33 mM | 1-D Distance.npi (Rlig1-AMP [5]): 106.113; solubility, H2O [7]: 25 mg/mL and 18.33 mM |
| CC1(C)CCC(C)(C)c2cc(NC(=O)c3ccc(C(=O)O)cc3)ccc21 [Tamibarotene] | – | – | – | – | – | – | – | – | – | – | – | – | – | – | – | – | 8958 | 10662 | 1704 | 25.5 mg/mL and 72.56 mM | – |
| Heparin (Lithium salt) | – | – | – | – | – | – | – | – | – | – | – | – | – | – | – | – | 12003 | 13115 | 1112 | – | 1-D Distance.npi (Rlig1-AMP [5]): 83.0264; solubility, H2O [7]: H2O : 100 mg/mL (Need ultrasonic) |
